Data set [1] concerns BaF3 cells with gatekeeper mutations (TRKA^F589L, TRKB^F663L, TRKC^F617L). Nature of the data set: BaF3 cell proliferation, summary over gatekeeper lines. The note with it: Mus musculus, BaF3, read-out: IC50 in cells with gatekeeper mutations.
Description: (§3) Murine BaF3 cells were purchased from JRCB cell bank. The BaF3 cell lines, which stably express natively-fused TRKA/B/C or various point mutants, were self-established by following previously described procedures. Briefly, NTRK genes were totally synthesized and cloned into pCDNA3.1(+) vectors (Invitrogen, Carlsbad, CA, USA). […] Stable strains were established by selection of cells 2 weeks post-transfection with 800 μg/mL G418 (Merck, Whitehouse Station, NJ) and further selection after the withdrawal of interleukin-3 (IL-3, R&D) for 2 weeks. All of BaF3 stable cell lines were verified by DNA sequencing, protein expression and anti-proliferation activity against positive drugs. […] All cells were grown at 37 °C in a humidified 5% CO2 atmosphere.
(§4) Cells were placed in 96-well plates (5000~8000/well) in complete medium. […] IC50 values were calculated by concentration-response curve fitting using GraphPad Prism 5.0 software. Each IC50 value is expressed as mean ± SD.
In data set [2] the test system is BaF3 cells with solvent front mutations (TRKA^G595R, TRKB^G639R, TRKC^G623R). Put plainly: BaF3 cell proliferation, summary over solvent front lines. The note with it: Mus musculus, BaF3, read-out: IC50 range in cells with solvent front mutations.
Description: as §3, §4
The subject of data set [3] is BaF3-CD74-TRKA-G667C xenograft. Put plainly: BaF3-CD74-TRKA-G667C xenograft model. It counts as in vivo. Conditions: for TGI (tumor growth inhibition): intraperitoneally once daily, 12 consecutive days.
For data set [4], the target named is TRKA-G667C (Homo sapiens, UniProt P04629, G667C). Nature of the data set: FRET-based Z'-Lyte kinase assay. The data set is classed as biochemical. As to the method: (§1) TRKA/B/C and the Z′-Lyte Kinase Assay Kit were purchased from Invitrogen. Assays were performed according to the manufacturer’s instructions. […] The solutions of the compounds were diluted from 10^−10 M to […] in DMSO and a 400 μM solution of the compound was prepared with 4 μL of the solution of the compound dissolved in 96 μL water. […] For each assay, 10 μL of a kinase solution, including 2.5 μL of the compound solution, 5 μL of the kinase/peptide mixture, and 2.5 μL of the ATP solution was prepared. The plate wells were mixed thoroughly and incubated for 1 h at room temperature (rt). Then 5 μL of the development solution was added to each well and the plate was incubated for 1 h at rt; the […] were cleaved in this time. Finally, 5 μL of stop reagent was added to stop the reaction. For the control setting, 5 μL of the phosphopeptide solution instead of the kinase/peptide mixture was used as a 100% phosphorylation control. […] The plate was measured on an EnVision Multilabel Reader (Perkin-Elmer). Curve fitting and data presentation was performed using GraphPad Prism, version 5.0. Every experiment was repeated at least 2 times.

The target of data set [5] is T1, TRKC (Homo sapiens, UniProt Q16288).
T1 construct: purchased Invitrogen
Nature of the data set: FRET-based Z'-Lyte kinase assay. The data set is classed as biochemical. Conditions: mean ± SD, read-out: IC50 TRKC kinase inhibition. As to the method:
as §1

Data set [6] deals with T2, TRKB (Homo sapiens, UniProt Q16620).
T2 construct: purchased Invitrogen
Put plainly: FRET-based Z'-Lyte kinase assay. The data set is classed as biochemical. Conditions: mean ± SD, read-out: IC50 TRKB kinase inhibition. As to the method: as §1

The test system of data set [7] is BaF3 CD74-TRKA-G667C. Put plainly: BaF3 cell proliferation, CCK-8 assay. Conditions: Mus musculus, BaF3, 72 h, read-out: IC50 (nM ± SD) xDFG CD74-TRKA-G667C. (Formazan colour is commonly taken as a measure of viable cells.)
Description: as §3, §4
The target in data set [8] is T3, TRKC WT (Homo sapiens, UniProt Q16288).
T3 construct: residues 526–839 from the kinase domain; made in house
Nature of the data set: Bio-layer interferometry (BLI) Octet binding assay. As to the method: (§2) Biolayer interferometry (BLI) assays were performed with the Octet K2 machine (ForteBio, Inc., Fremont, CA, USA). […] Excess biotin was removed by column chromatography (PD MiniTrap^TM G-25 Desalting column, Lot#17030445), and the residue was diluted to 400 μL with PBS and immobilized onto Super streptavidin biosensor chips (ForteBio, Cat#18–5057). A duplicate set of sensors was incubated in an assay buffer (PBS containing 0.02% Tween20 and 0.1% BSA) with 5% DMSO but without protein for use as a background binding control. Both sets of sensors were blocked with a solution of 10 μg/mL biocytin for 1 min at rt. Drug concentrations ranged from 0.74 to 180 nmol/L (6 doses). Data was analyzed by the FortéBio Data Analysis 8.1 software (FortéBio, Fremont, CA, USA) using a double reference subtraction (sample and sensor references).
A general note: Biolayer interferometry detects binding as a change in optical thickness at a sensor tip.

Data set [9] relates to TRKC WT. Put plainly: Bio-layer interferometry (BLI) Octet binding assay. Set-up: species or system Human. The note with it: TRKC-WT and TRKC-G696C. As to the method:
as §2

The target of data set [10] is T4, TRKA (Homo sapiens, UniProt P04629).
T4 construct: purchased Invitrogen
Nature of the data set: FRET-based Z'-Lyte kinase assay. It counts as biochemical. The note with it: mean ± SD, read-out: IC50 TRKA kinase inhibition.

In data set [11] the test system is BaF3 CD74-TRKA-G595R. Nature of the data set: BaF3 cell proliferation, CCK-8 assay. The note with it: Mus musculus, BaF3, 72 h, read-out: IC50 (nM ± SD) Solvent Front CD74-TRKA-G595R.
Description: as §3, §4
Data set [12] is described as follows: Pharmacokinetics in rats (Table S4). It counts as in vivo.
Data set [13] concerns Parental BaF3 (+IL3). Put plainly: BaF3 cell proliferation, CCK-8 assay. The note with it: Mus musculus, BaF3, 72 h, read-out: IC50 (nM ± SD) Parental BaF3 (+IL3).
Description: as §3, §4
The test system of data set [14] is BaF3 ETV6-TRKC-F617L. Nature of the data set: BaF3 cell proliferation, CCK-8 assay. The note with it: Mus musculus, BaF3, 72 h, read-out: IC50 (nM ± SD) Gatekeeper ETV6-TRKC-F617L.
Description: as §3, §4
The subject of data set [15] is BaF3 CD74-TRKA-F589L. Nature of the data set: BaF3 cell proliferation, CCK-8 assay. Conditions: Mus musculus, BaF3, 72 h, read-out: IC50 (nM ± SD) Gatekeeper CD74-TRKA-F589L.
Description: as §3, §4
Data set [16] relates to BaF3 ETV6-TRKB-G639R. Put plainly: BaF3 cell proliferation, CCK-8 assay. The note with it: Mus musculus, BaF3, 72 h, read-out: IC50 (nM ± SD) Solvent Front ETV6-TRKB-G639R.
Description: as §3, §4
The test system of data set [17] is BaF3 cells harboring wild-type TRKA/B/C. Nature of the data set: BaF3 cell proliferation, summary over wild-type lines. The note with it: Mus musculus, BaF3, read-out: IC50 range in BaF3 cells harboring wild-type TRKA/B/C.
Excerpt: Murine BaF3 cells were purchased from JRCB cell bank. The BaF3 cell lines, which stably express natively-fused TRKA/B/C or various point mutants, were self-established by following previously described procedures. Briefly, NTRK genes were totally synthesized and cloned into pCDNA3.1(+) vectors (Invitrogen, Carlsbad, CA, USA). The pCDNA3.1(+) plasmids containing different NTRK-fusion genes were introduced into BaF3 cells by electroporation (Amaxa Nucleofector II device) using the “Amaxa Cell Line Nucleofector Kit V” (VCA-1003) according to the manufacturer’s directions. Stable strains were established by selection of cells 2 weeks post-transfection with 800 μg/mL G418 (Merck, Whitehouse Station, NJ) and further selection after the withdrawal of interleukin-3 (IL-3, R&D) for 2 weeks. All of BaF3 stable cell lines were verified by DNA sequencing, protein expression and anti-proliferation activity against positive drugs. […]
as §4
Data set [18] has as its system BaF3 ETV6-TRKC-G623R. Nature of the data set: BaF3 cell proliferation, CCK-8 assay. The note with it: Mus musculus, BaF3, 72 h, read-out: IC50 (nM ± SD) Solvent Front ETV6-TRKC-G623R.
Description: as §3, §4
In data set [19] the test system is BaF3 ETV6-TRKB. Nature of the data set: BaF3 cell proliferation, CCK-8 assay. Conditions: Mus musculus, BaF3, 72 h, read-out: IC50 (nM ± SD) WT ETV6-TRKB.
Description: as §3, §4

SMILES strings stand for the structures.

The Kd is the equilibrium constant for the complex coming apart.

`Cc1c(C#Cc2cnc3cnc(-c4ccc(N)cc4)cn23)cccc1C(=O)Nc1cc(CN2CCN(C)CC2)cc(C(C)C)c1` [JND4135, 3-((6-(4-aminophenyl)imidazo[1,2-a]pyrazin-3-yl)ethynyl)-N-(3-isopropyl-5-((4-methylpiperazin-1-yl)methyl)phenyl)-2-methylbenzamide]: the IC50 in data set [1] is 37.3 to 178 nM; in [2] it was 9.4 to 33.7 nM; in data set [4] (Z'-Lyte, mean ± SD, read-out: IC50 TRKA-G667C kinase inhibition) it was 0.83 ± 0.06 nM; in data set [5] it was 3.01 ± 0.43 nM; in [6], 3.19 ± 1.76 nM; in [7] it was 1.4 ± 0.2 nM. For the same compound, the IC50 in data set [10] is 2.79 ± 1.17 nM; in data set [11] it was 33.7 ± 7.1 nM; in [13], 1950 ± 25.1 nM; in data set [14], 37.3 ± 14 nM; in [15], 75 ± 12.7 nM; in data set [16], 10.1 ± 3.9 nM. Besides, the IC50 is 2.4 to 23.1 nM in data set [17], 9.4 ± 2.6 nM in [18] and 23.1 ± 5.9 nM in [19]. In addition, the “TGI (tumor growth inhibition)” value worked out at 34.2% in [3] (20 mg/kg) and 81.0% in [3] (40 mg/kg). Moreover, the “tolerability (mortality, body weight)” value in data set [3] (20 and 40 mg/kg/day, 12 days) is recorded as “no mortality or significant body weight loss”. The “activation of TRKA and downstream molecules PLCγ-1 and ERK in tumor tissues” value in data set [3] (tumor tissues at end of treatment, Western blot) is listed as “effectively inhibit”. Further, the “fold stronger kinase inhibition of TRKA-G667C than TRKA-WT” value in data set [4] worked out at 3.3 fold. In addition, the koff in data set [8] (Koff, read-out: dissociation rate with TRKC-WT) came to 0.000278 s⁻¹. In data set [8] (read-out: Kd, binding affinity to TRKC-WT), the Kd came to 2.57 nM. For the same compound, the “fold slower dissociation rate than that of control drugs” value in [9] was 3.81–27.85 fold. Moreover, the “absorption via oral administration” value in [12] is on record as “almost no absorption”.
